In PubChem BioAssay (NCI):
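All cell lines were grown in 96-well plates and treated with compound for 48 hours. GI50 marks 50% less growth. TGI: concentration producing complete growth inhibition.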

Assays:
Test in all cases: NCI-60 cell line screen, 48 h
RXF 393 renal = test system: RXF 393 renal
RPMI-8226 leukemia = test system: RPMI-8226 leukemia
SK-MEL-2 melanoma = test system: SK-MEL-2 melanoma
HOP-62 NSCLC = test system: HOP-62 NSCLC
COLO 205 colon = test system: COLO 205 colon
HCT-15 colon = test system: HCT-15 colon
SF-539 CNS = test system: SF-539 CNS
NCI-H522 lung = test system: NCI-H522 lung
UACC-257 melanoma = test system: UACC-257 melanoma
HCT-116 colon = test system: HCT-116 colon
NCI/ADR-RES ovarian = test system: NCI/ADR-RES ovarian
MOLT-4 leukemia = test system: MOLT-4 leukemia
SK-MEL-5 melanoma = test system: SK-MEL-5 melanoma
BT-549 breast = test system: BT-549 breast
MALME-3M melanoma = test system: MALME-3M melanoma
KM12 colon = test system: KM12 colon
SNB-19 CNS = test system: SNB-19 CNS
SNB-75 CNS = test system: SNB-75 CNS
A549 NSCLC = test system: A549 NSCLC
UO-31 renal = test system: UO-31 renal
TK-10 renal = test system: TK-10 renal
SN12C renal = test system: SN12C renal
M14 melanoma = test system: M14 melanoma
HS 578T breast = test system: HS 578T breast
PC-3 prostate = test system: PC-3 prostate
T-47D breast = test system: T-47D breast
CCRF-CEM leukemia = test system: CCRF-CEM leukemia
NCI-H226 lung = test system: NCI-H226 lung
SW-620 colon = test system: SW-620 colon
ACHN renal = test system: ACHN renal
HOP-92 NSCLC = test system: HOP-92 NSCLC
MDA-MB-435 = test system: MDA-MB-435
HT29 colon = test system: HT29 colon
SK-MEL-28 melanoma = test system: SK-MEL-28 melanoma
SK-OV-3 ovarian = test system: SK-OV-3 ovarian
HL-60(TB) leukemia = test system: HL-60(TB) leukemia
SF-295 CNS = test system: SF-295 CNS
OVCAR-3 ovarian = test system: OVCAR-3 ovarian
786-0 renal = test system: 786-0 renal
SR leukemia = test system: SR leukemia
IGROV1 ovarian = test system: IGROV1 ovarian
MCF7 breast = test system: MCF7 breast
CAKI-1 renal = test system: CAKI-1 renal
OVCAR-5 ovarian = test system: OVCAR-5 ovarian
HCC-2998 colon = test system: HCC-2998 colon
MDA-MB-231 breast = test system: MDA-MB-231 breast
U251 CNS = test system: U251 CNS
OVCAR-4 ovarian = test system: OVCAR-4 ovarian
NCI-H23 lung = test system: NCI-H23 lung
A498 renal = test system: A498 renal
DU-145 prostate = test system: DU-145 prostate
UACC-62 melanoma = test system: UACC-62 melanoma
OVCAR-8 ovarian = test system: OVCAR-8 ovarian
NCI-H460 lung = test system: NCI-H460 lung
LOX IMVI melanoma = test system: LOX IMVI melanoma
SF-268 CNS = test system: SF-268 CNS
K-562 leukemia = test system: K-562 leukemia

O=C1NC(=NCCc2cccs2)S/C1=C\c1ccc2ncccc2c1 was tested, and the GI50 (RXF 393 renal) was 7.68 µM, the TGI (RXF 393 renal) was > 25 µM and the GI50 (RPMI-8226 leukemia) was 11.6 µM. For the same compound, the TGI (RPMI-8226 leukemia) was > 25 µM, the GI50 (SK-MEL-2 melanoma) was > 18.8 µM and the TGI (SK-MEL-2 melanoma) was > 25 µM. For the same compound, the GI50 (HOP-62 NSCLC) was 11.8 µM, the TGI (HOP-62 NSCLC) was > 25 µM and the GI50 (COLO 205 colon) was 7.79 µM. For the same compound, the TGI (COLO 205 colon) was > 25 µM, the GI50 (HCT-15 colon) was 8.02 µM and the TGI (HCT-15 colon) was > 25 µM. The GI50 (SF-539 CNS) was 7.54 µM, the TGI (SF-539 CNS) was > 25 µM and the GI50 (NCI-H522 lung) was 7.33 µM. For the same compound, the TGI (NCI-H522 lung) was > 25 µM, the GI50 (UACC-257 melanoma) was > 19.3 µM and the TGI (UACC-257 melanoma) was > 25 µM. For the same compound, the GI50 (HCT-116 colon) was 5.92 µM, the TGI (HCT-116 colon) was > 25 µM and the GI50 (NCI/ADR-RES ovarian) was 15.3 µM. For the same compound, the TGI (NCI/ADR-RES ovarian) was > 25 µM, the GI50 (MOLT-4 leukemia) was 12.6 µM and the TGI (MOLT-4 leukemia) was > 25 µM. For the same compound, the GI50 (SK-MEL-5 melanoma) was 8.5 µM, the TGI (SK-MEL-5 melanoma) was > 25 µM and the GI50 (BT-549 breast) was 6.39 µM. The TGI (BT-549 breast) was 22 µM, the GI50 (MALME-3M melanoma) was > 25 µM and the TGI (MALME-3M melanoma) was > 25 µM. For the same compound, the GI50 (KM12 colon) was 10.8 µM, the TGI (KM12 colon) was > 25 µM and the GI50 (SNB-19 CNS) was 9.64 µM. For the same compound, the TGI (SNB-19 CNS) was > 25 µM, the GI50 (SNB-75 CNS) was 5.91 µM and the TGI (SNB-75 CNS) was > 22.6 µM. The GI50 (A549 NSCLC) was 8.83 µM, the TGI (A549 NSCLC) was > 25 µM and the GI50 (UO-31 renal) was 11.4 µM. For the same compound, the TGI (UO-31 renal) was > 25 µM, the GI50 (TK-10 renal) was 7.77 µM and the TGI (TK-10 renal) was > 25 µM. For the same compound, the GI50 (SN12C renal) was 8.78 µM, the TGI (SN12C renal) was > 25 µM and the GI50 (M14 melanoma) was 12.1 µM. For the same compound, the TGI (M14 melanoma) was > 25 µM, the GI50 (HS 578T breast) was 6.57 µM and the TGI (HS 578T breast) was > 21.8 µM. For the same compound, the GI50 (PC-3 prostate) was > 20 µM, the TGI (PC-3 prostate) was > 25 µM and the GI50 (T-47D breast) was 10.1 µM. The TGI (T-47D breast) was > 25 µM, the GI50 (CCRF-CEM leukemia) was 10.2 µM and the TGI (CCRF-CEM leukemia) was > 25 µM. For the same compound, the GI50 (NCI-H226 lung) was 8.21 µM, the TGI (NCI-H226 lung) was > 25 µM and the GI50 (SW-620 colon) was 8.2 µM. For the same compound, the TGI (SW-620 colon) was > 25 µM, the GI50 (ACHN renal) was 8.33 µM and the TGI (ACHN renal) was > 25 µM. For the same compound, the GI50 (HOP-92 NSCLC) was 4.7 µM, the TGI (HOP-92 NSCLC) was > 25 µM and the GI50 (MDA-MB-435) was 6.97 µM. The TGI (MDA-MB-435) was > 25 µM, the GI50 (HT29 colon) was 11.8 µM and the TGI (HT29 colon) was > 25 µM. The GI50 (SK-MEL-28 melanoma) was 24.4 µM, the TGI (SK-MEL-28 melanoma) was > 25 µM and the GI50 (SK-OV-3 ovarian) was 9.36 µM. The TGI (SK-OV-3 ovarian) was > 25 µM, the GI50 (HL-60(TB) leukemia) was 9.17 µM and the TGI (HL-60(TB) leukemia) was > 25 µM. For the same compound, the GI50 (SF-295 CNS) was 9.56 µM, the TGI (SF-295 CNS) was > 25 µM and the GI50 (OVCAR-3 ovarian) was 10.1 µM. The TGI (OVCAR-3 ovarian) was > 25 µM, the GI50 (786-0 renal) was 14.5 µM and the TGI (786-0 renal) was > 25 µM. For the same compound, the GI50 (SR leukemia) was 2230 nM, the TGI (SR leukemia) was 14.2 µM and the GI50 (IGROV1 ovarian) was 9.1 µM. The TGI (IGROV1 ovarian) was > 25 µM, the GI50 (MCF7 breast) was 8.28 µM and the TGI (MCF7 breast) was > 25 µM. For the same compound, the GI50 (CAKI-1 renal) was 9.7 µM, the TGI (CAKI-1 renal) was > 25 µM and the GI50 (OVCAR-5 ovarian) was > 20.4 µM. The TGI (OVCAR-5 ovarian) was > 25 µM, the GI50 (HCC-2998 colon) was 22.1 µM and the TGI (HCC-2998 colon) was > 25 µM. The GI50 (MDA-MB-231 breast) was 19.7 µM, the TGI (MDA-MB-231 breast) was > 25 µM and the GI50 (U251 CNS) was 8.79 µM. For the same compound, the TGI (U251 CNS) was > 25 µM, the GI50 (OVCAR-4 ovarian) was 13.2 µM and the TGI (OVCAR-4 ovarian) was > 25 µM. The GI50 (NCI-H23 lung) was 9.54 µM, the TGI (NCI-H23 lung) was > 25 µM and the GI50 (A498 renal) was 7.59 µM. The TGI (A498 renal) was > 22.3 µM, the GI50 (DU-145 prostate) was 11.2 µM and the TGI (DU-145 prostate) was > 25 µM. For the same compound, the GI50 (UACC-62 melanoma) was 9.51 µM, the TGI (UACC-62 melanoma) was > 25 µM and the GI50 (OVCAR-8 ovarian) was 10.3 µM. The TGI (OVCAR-8 ovarian) was > 25 µM, the GI50 (NCI-H460 lung) was 10.3 µM and the TGI (NCI-H460 lung) was > 25 µM. For the same compound, the GI50 (LOX IMVI melanoma) was 8.12 µM, the TGI (LOX IMVI melanoma) was > 25 µM and the GI50 (SF-268 CNS) was 10 µM. The TGI (SF-268 CNS) was > 25 µM, the GI50 (K-562 leukemia) was 8.85 µM and the TGI (K-562 leukemia) was > 25 µM.
